Measurements as given in paper PMC7898037, “Improving mitochondria and ER stability helps eliminate upper motor neuron degeneration that occurs due to mSOD1 toxicity and TDP‐43 pathology” (Clinical and Translational Medicine, 2021).
Several values for one entry are separate records, joined by “and”; a condition that tells them apart may be missing. Identical values can stand only once.

Tests used:
[1] = design: method as in PMID 22189273, PMID 22837812; settings: cited from earlier work
[2] = design: method as in PMID 22189273, PMID 22837812; settings: cited from earlier work; remark: listed apart in the source
[3] = system: cytochrome P450s; settings: cited from earlier work
[4] = system: UMNs in the motor cortex of prpTDP‐43^A315T‐UeGFP mice; test: UMN quantification in motor cortex, prpTDP‐43^A315T‐UeGFP mice; type: in vivo
Description: (§1) hSOD1^G93A‐UeGFP, prpTDP‐43^A315T‐UeGFP and WT‐UeGFP mice were weighed and the required NU‐9 dose per weight was calculated (20 or 100 mg/kg), which was administered once daily by oral gavage, starting at postnatal day (P)60 and continuing until P120. Animals from the untreated group received the vehicle (NMP and olive oil) only. For oral administration purposes, 20 ga × 38 mm plastic feeding tubes were used (Instech Laboratories, Inc). The gavage tip was inserted into the mouth directly over the tongue and into the pharynx. While observing the swallowing reflex, the tip was safely and smoothly slid into the esophagus. Once the administration was completed, the gavage tip was pulled straight out.
Since UMNs are genetically labeled with eGFP expression in the motor cortex of WT‐UeGFP, hSOD1^G93A‐UeGFP, and prpTDP‐43^A315T‐UeGFP mice, UMNs were identified based on the GFP expression. Quantitative analyses were performed on three matched rostrocaudal sections spanning the motor cortex. Three images per subject were taken to capture a 4× objective filed that encompass layer 5 of the motor cortex. An inverted epifluorescent Eclipse TE2000‐E microscope (Nikon) with the same exposure time and intensity was used. UMNs were counted only if their soma and apical dendrite were both visualized in the same 50‐µm thick section. Images were analyzed in ImageJ (NIH) using the Find maxima processing command to determine the local maxima within a predetermined region of interest that circumscribes the layer 5 of the motor cortex. A universal noise tolerance, which ignores the local maxima corresponding to background and autofluorescence, was applied to all images.

[5] = system: hSOD1^G93A‐UeGFP mice; test: Hanging wire test (max 60 s), hSOD1^G93A‐UeGFP mice; type: in vivo; design: Mean Diff. (wire hanging), vehicle vs. NU-9 / Mean (wire hanging): unit not given here; settings: for Hanging wire test, group mean (Mean 1 / Mean 2): hSOD1G93A-UeGFP (GS) mice; for wire hanging, Average / Mean (wire hanging): hSOD1G93A-UeGFP
Description: as §1
Behavior data were collected from hSOD1^G93A‐UeGFP and WT‐UeGFP mice (starting at P60 and every 7 days until P116) and from prpTDP‐43^A315T‐UeGFP mice (at P60, P90, and P120) with the following number of mice for each group: WT‐UeGFP vehicle (n = 10), hSOD1^G93A‐UeGFP vehicle (n = 6), WT‐UeGFP 20 mg/kg/day NU‐9 (n = 5), hSOD1^G93A‐UeGFP 20 mg/kg/day NU‐9 (n = 7), WT‐UeGFP 100 mg/kg/day NU‐9 (n = 11), hSOD1^G93A‐UeGFP 100 mg/kg/day NU‐9 (n = 9), prpTDP‐43^A315T‐UeGFP untreated (n ≥ 3), and prpTDP‐43^A315T‐UeGFP 100 mg/kg/day NU‐9 (n = 4) (Table S3).
Mice were placed on a wire mesh, which was then inverted and suspended above the home cage; the time when the animal fell was recorded. This test was performed three times for a maximum of 60 s each session, with a 1‐min rest period between each trial. The average performance for each session is presented as the average of the three trials.

SMILES: C[C@H](Oc1cc(C(F)(F)F)cc(C(F)(F)F)c1)C1CC(=O)CC(=O)C1 [NU‐9]
- PAMPA‐BBB P e [1]: 8.11 × 10^–6 cm/s
- PAMPA‐BBB classification [1]: CNS+
- Solubility (aqueous) [2]: ≥ 100 µM and ≥ 37 µg/ml
- CYP inhibition ([3]; 5 CYPs, at 3 µM): 5 CYPs; <10% at 3 µM
- inhibition of cytochrome P450s [3]: little inhibition
- Mean Diff., Fig. 7H, GT Untreated vs. GT NU-9 (100) ([4]; prpTDP43A315T-UeGFP untreated minus NU-9 100 mg/kg/day, Tukey's multiple comparisons test): -22.58
- Mean, Fig. 7H (UMN quantification in motor cortex) ([4]; prpTDP-43A315T-UeGFP mice, NU-9 100 mg/kg/day): 59.17
- average number of UMNs in the motor cortex ([4]; prpTDP‐43^A315T‐UeGFP mice, 100 mg/kg/day oral gavage P60–P120): 59 ± 3 UMNs
- Hanging wire test, group mean (Mean 1 / Mean 2) ([5]; NU-9 20 mg/kg/day, P102, max 60 s): 43 s
- Hanging wire test, group mean (Mean 1 / Mean 2) ([5]; NU-9 20 mg/kg/day, P109, max 60 s): 37.48 s
- Hanging wire test, group mean (Mean 1 / Mean 2) ([5]; NU-9 20 mg/kg/day, P116, max 60 s): 27.33 s
- Hanging wire test, group mean (Mean 1 / Mean 2) ([5]; NU-9 100 mg/kg/day, P102, max 60 s): 53.3 s
- Hanging wire test, group mean (Mean 1 / Mean 2) ([5]; NU-9 100 mg/kg/day, P109, max 60 s): 58.89 s
- Hanging wire test, group mean (Mean 1 / Mean 2) ([5]; NU-9 100 mg/kg/day, P116, max 60 s): 51.15 s
- Hanging wire test, mean difference vehicle minus NU-9 ([5]; hSOD1G93A-UeGFP (GS) vehicle vs. NU-9 20 mg/kg/day, P102): -0.6667 s
- Hanging wire test, mean difference vehicle minus NU-9 ([5]; hSOD1G93A-UeGFP (GS) vehicle vs. NU-9 20 mg/kg/day, P109): 6.746 s
- Hanging wire test, mean difference vehicle minus NU-9 ([5]; hSOD1G93A-UeGFP (GS) vehicle vs. NU-9 20 mg/kg/day, P116): -4.722 s
- Hanging wire test, mean difference vehicle minus NU-9 ([5]; hSOD1G93A-UeGFP (GS) vehicle vs. NU-9 100 mg/kg/day, P102): -10.96 s
- Hanging wire test, mean difference vehicle minus NU-9 ([5]; hSOD1G93A-UeGFP (GS) vehicle vs. NU-9 100 mg/kg/day, P109): -14.67 s
- Hanging wire test, mean difference vehicle minus NU-9 ([5]; hSOD1G93A-UeGFP (GS) vehicle vs. NU-9 100 mg/kg/day, P116): -28.54 s
- Mean Diff. (wire hanging), vehicle vs. NU-9 ([5]; hSOD1G93A-UeGFP vehicle vs. NU-9 20 mg/kg/day, P60): -0.5238
- Mean Diff. (wire hanging), vehicle vs. NU-9 ([5]; hSOD1G93A-UeGFP vehicle vs. NU-9 20 mg/kg/day, P67): 4.175
- Mean Diff. (wire hanging), vehicle vs. NU-9 ([5]; hSOD1G93A-UeGFP vehicle vs. NU-9 20 mg/kg/day, P74): -3.46
- Mean Diff. (wire hanging), vehicle vs. NU-9 ([5]; hSOD1G93A-UeGFP vehicle vs. NU-9 20 mg/kg/day, P81): -1.095
- Mean Diff. (wire hanging), vehicle vs. NU-9 ([5]; hSOD1G93A-UeGFP vehicle vs. NU-9 20 mg/kg/day, P88): -2.452
- Mean Diff. (wire hanging), vehicle vs. NU-9 ([5]; hSOD1G93A-UeGFP vehicle vs. NU-9 20 mg/kg/day, P95): -5.254
- Mean Diff. (wire hanging), vehicle vs. NU-9 ([5]; hSOD1G93A-UeGFP vehicle vs. NU-9 20 mg/kg/day, P102): -0.6667
- Mean Diff. (wire hanging), vehicle vs. NU-9 ([5]; hSOD1G93A-UeGFP vehicle vs. NU-9 20 mg/kg/day, P109): 6.746
- Mean Diff. (wire hanging), vehicle vs. NU-9 ([5]; hSOD1G93A-UeGFP vehicle vs. NU-9 20 mg/kg/day, P116): -4.722
- Mean Diff. (wire hanging), vehicle vs. NU-9 ([5]; hSOD1G93A-UeGFP vehicle vs. NU-9 100 mg/kg/day, P60): -5.333
- Mean Diff. (wire hanging), vehicle vs. NU-9 ([5]; hSOD1G93A-UeGFP vehicle vs. NU-9 100 mg/kg/day, P67): 1.222
- Mean Diff. (wire hanging), vehicle vs. NU-9 ([5]; hSOD1G93A-UeGFP vehicle vs. NU-9 100 mg/kg/day, P74): -7.519
- Mean Diff. (wire hanging), vehicle vs. NU-9 ([5]; hSOD1G93A-UeGFP vehicle vs. NU-9 100 mg/kg/day, P81): -5.148
- Mean Diff. (wire hanging), vehicle vs. NU-9 ([5]; hSOD1G93A-UeGFP vehicle vs. NU-9 100 mg/kg/day, P88): -9.13
- Mean Diff. (wire hanging), vehicle vs. NU-9 ([5]; hSOD1G93A-UeGFP vehicle vs. NU-9 100 mg/kg/day, P95): -7.704
- Mean Diff. (wire hanging), vehicle vs. NU-9 ([5]; hSOD1G93A-UeGFP vehicle vs. NU-9 100 mg/kg/day, P102): -10.96
- Mean Diff. (wire hanging), vehicle vs. NU-9 ([5]; hSOD1G93A-UeGFP vehicle vs. NU-9 100 mg/kg/day, P109): -14.67
- Mean Diff. (wire hanging), vehicle vs. NU-9 ([5]; hSOD1G93A-UeGFP vehicle vs. NU-9 100 mg/kg/day, P116): -28.54
- wire hanging, Average ([5]; NU-9 20 mg/kg/day po, P60): 55.1905 s
- wire hanging, Average ([5]; NU-9 20 mg/kg/day po, P67): 51.7143 s
- wire hanging, Average ([5]; NU-9 20 mg/kg/day po, P74): 55.2381 s
- wire hanging, Average ([5]; NU-9 20 mg/kg/day po, P81): 54.0952 s
- wire hanging, Average ([5]; NU-9 20 mg/kg/day po, P88): 52.9524 s
- wire hanging, Average ([5]; NU-9 20 mg/kg/day po, P95): 54.8095 s
- wire hanging, Average ([5]; NU-9 20 mg/kg/day po, P102): 43 s
- wire hanging, Average ([5]; NU-9 20 mg/kg/day po, P109): 37.4762 s
- wire hanging, Average ([5]; NU-9 20 mg/kg/day po, P116): 27.3333 s
- Mean (wire hanging) ([5]; NU-9 20 mg/kg/day, P60): 55.19
- Mean (wire hanging) ([5]; NU-9 20 mg/kg/day, P67): 51.71
- Mean (wire hanging) ([5]; NU-9 20 mg/kg/day, P74): 55.24
- Mean (wire hanging) ([5]; NU-9 20 mg/kg/day, P81): 54.1
- Mean (wire hanging) ([5]; NU-9 20 mg/kg/day, P88): 52.95
- Mean (wire hanging) ([5]; NU-9 20 mg/kg/day, P95): 54.81
- wire hanging, Average ([5]; NU-9 100 mg/kg/day po, P60): 60 s
- wire hanging, Average ([5]; NU-9 100 mg/kg/day po, P67): 54.6667 s
- wire hanging, Average ([5]; NU-9 100 mg/kg/day po, P74): 59.2963 s
- wire hanging, Average ([5]; NU-9 100 mg/kg/day po, P81): 58.1481 s
- wire hanging, Average ([5]; NU-9 100 mg/kg/day po, P88): 59.6296 s
- wire hanging, Average ([5]; NU-9 100 mg/kg/day po, P95): 57.2593 s
- wire hanging, Average ([5]; NU-9 100 mg/kg/day po, P102): 53.2963 s
- wire hanging, Average ([5]; NU-9 100 mg/kg/day po, P109): 58.8889 s
- wire hanging, Average ([5]; NU-9 100 mg/kg/day po, P116): 51.1481 s
- Mean (wire hanging) ([5]; NU-9 100 mg/kg/day, P60): 60
- Mean (wire hanging) ([5]; NU-9 100 mg/kg/day, P67): 54.67
- Mean (wire hanging) ([5]; NU-9 100 mg/kg/day, P74): 59.3
- Mean (wire hanging) ([5]; NU-9 100 mg/kg/day, P81): 58.15
- Mean (wire hanging) ([5]; NU-9 100 mg/kg/day, P88): 59.63
- Mean (wire hanging) ([5]; NU-9 100 mg/kg/day, P95): 57.26
- hanging wire test, latency to fall ([5]; hSOD1^G93A‐UeGFP mice, 100 mg/kg/day, P102): 53.3 ± 2.9 s
